Test results reported in BindingDB's records for doi:10.1021/jm9910371 (Uppsala University, 1999).

Molecular target: T1, Dimer of Gag-Pol polyprotein [501-599] (Human immunodeficiency virus 1, UniProt P03367)
T1 construct: 501-599
Assay: Protease Inhibition Assay
Settings: pH 5; 30 °C
Protocol: Ki values were determined by using a fluorescent substrate (DABCYL-gamma-Abu-[…]EDANS). All incubations were performed at 30°C in 0.1 M sodium acetate 1 M NaCl 1 mM DTT 1 mM EDTA 3% DMSO (pH 5.0) by using 5 uM substrate and the indicated enzyme concentrations ([E]). The enzyme concentration (A280) was determined by absorption measurements.

Structure (SMILES)	Ki
CNC(=O)[C@@H](NC(=O)[C@H](OCc1ccccc1)[C@H](O)[C@@H](O)[C@@H](OCc1ccccc1)C(=O)N[C@H](C(=O)NC)C(C)C)C(C)C [1-Valine Methylamide deriv. 1]	400 pM
CNC(=O)[C@@H](NC(=O)[C@H](OCc1ccc(C2CCCC(=O)C2=O)cc1)[C@H](O)[C@@H](O)[C@@H](OCc1ccc(C2CCCC(=O)C2=O)cc1)C(=O)N[C@H](C(=O)NC)C(C)C)C(C)C (stereo partly drawn) [N1,N6-Bis[(1S)-2-methyl-1-(methylcarbamoyl)pro-pyl](2R,3R,4R,5R)-2,5-bis[4-(3-cyclohexane-1,2-dionyl)benzyloxy]-3,4-dihydroxyhexanediamide]	300 pM
